Measurements taken from PubChem BioAssay AID192 (DTP/NCI, 2004).
Where “and” joins values, the source holds several entries; their conditions need not be identical. Identical values can stand only once. Inconclusive results and toxic doses are left out.

Tested on: BDF1 mice, B16 melanoma ip, median survival T/C
Assay: NCI In Vivo Anticancer Drug Screen. Data for tumor model B16 Melanoma (intraperitoneal) in B6D2F1 (BDF1) mice
Settings: endpoint: median survival time, higher = longer survival
Procedure, shortened: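 In this screen, activity was judged from survival or tumor size in treated versus vehicle-treated tumor-bearing mice, reported as T/C.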

[1] = dose: 6.25 mg/kg/injection, schedule: Q01DX009 (ip), vehicle: saline
[2] = dose: 12.5 mg/kg/injection, schedule: Q01DX009 (ip), vehicle: saline
[3] = dose: 25.0 mg/kg/injection, schedule: Q01DX009 (ip), vehicle: saline
[4] = dose: 50.0 mg/kg/injection, schedule: Q01DX009 (ip), vehicle: Klucel (hydroxypropylcellulose) (HPC)
[5] = dose: 100.0 mg/kg/injection, schedule: Q01DX009 (ip), vehicle: Klucel (hydroxypropylcellulose) (HPC)
[6] = dose: 200.0 mg/kg/injection, schedule: Q01DX009 (ip), vehicle: Klucel (hydroxypropylcellulose) (HPC)
[7] = dose: 400.0 mg/kg/injection, schedule: Q01DX009 (ip), vehicle: Klucel (hydroxypropylcellulose) (HPC)
[8] = dose: 6.25 mg/kg/injection, schedule: Q01DX009 (ip), vehicle: saline with Tween-80
[9] = dose: 50.0 mg/kg/injection, schedule: Q01DX009 (ip), vehicle: saline with Tween-80
[10] = dose: 100.0 mg/kg/injection, schedule: Q01DX009 (ip), vehicle: saline
[11] = dose: 200.0 mg/kg/injection, schedule: Q01DX009 (ip), vehicle: saline
[12] = dose: 400.0 mg/kg/injection, schedule: Q01DX009 (ip), vehicle: saline
[13] = dose: 6.25 mg/kg/injection, schedule: Q01DX009 (ip), vehicle: Klucel (hydroxypropylcellulose) (HPC)
[14] = dose: 12.5 mg/kg/injection, schedule: Q01DX009 (ip), vehicle: Klucel (hydroxypropylcellulose) (HPC)
[15] = dose: 25.0 mg/kg/injection, schedule: Q01DX009 (ip), vehicle: Klucel (hydroxypropylcellulose) (HPC)
[16] = dose: 50.0 mg/kg/injection, schedule: Q01DX009 (ip), vehicle: saline
[17] = dose: 100.0 mg/kg/injection, schedule: Q01DX009 (ip), vehicle: saline with Tween-80
[18] = dose: 200.0 mg/kg/injection, schedule: Q01DX009 (ip), vehicle: saline with Tween-80
[19] = dose: 400.0 mg/kg/injection, schedule: Q01DX009 (ip), vehicle: saline with Tween-80
[20] = dose: 100.0 mg/kg/injection, schedule: Q04DX003 (ip), vehicle: Klucel (hydroxypropylcellulose) (HPC)

For `COc1cc(OC)c(OC)cc1/C=C\c1ccc2ccccc2[n+]1C`, the T/C [1] was 93 % of control, the T/C [2] was 100 % of control and the T/C [3] was 97 % of control.

With `C/C(=C\C(=O)Nc1ncn[nH]1)Nc1ncn[nH]1` the T/C [4] was 106 % of control, the T/C [5] was 102 % of control and the T/C [6] was 90 % of control. For the same compound, the T/C [7] was 101 % of control.

With `Cc1nc2c(O)ccc(O)c2nc1C` the T/C (dose: 1.56 mg/kg/injection, schedule: Q01DX009 (ip), vehicle: saline with Tween-80) was 106 % of control, the T/C (dose: 3.13 mg/kg/injection, schedule: Q01DX009 (ip), vehicle: saline with Tween-80) was 102 % of control and the T/C [8] was 100 % of control. For the same compound, the T/C [9] was 89 % of control.

In the case of `C/C=C/C(=O)NCC(C(C)C)/[N+]([O-])=N/O` (stereo not given), the T/C [1] is reported as 100 % of control, the T/C [2] is reported as 104 % of control and the T/C [3] is reported as 100 % of control.

With `CS(=O)(=O)Nc1ccc(Nc2c3ccccc3nc3cc(Cl)ccc23)cc1` the T/C (dose: 3.0 mg/kg/injection, schedule: Q01DX009 (ip), vehicle: saline with Tween-80) was 152 % of control, the T/C (dose: 37.5 mg/kg/injection, schedule: Q01DX001 (ip), vehicle: saline sonified) was 169 % of control and the T/C (dose: 75.0 mg/kg/injection, schedule: Q01DX001 (ip), vehicle: saline sonified) was 152 % of control.

With `CCC/C(C)=N/Nc1ccccn1` the T/C (dose: 12.5 mg/kg/injection, schedule: Q01DX009 (ip), vehicle: saline sonified) was 97 % of control, the T/C (dose: 25.0 mg/kg/injection, schedule: Q01DX009 (ip), vehicle: saline sonified) was 95 % of control and the T/C (dose: 50.0 mg/kg/injection, schedule: Q01DX009 (ip), vehicle: saline sonified) was 97 % of control. For the same compound, the T/C (dose: 100.0 mg/kg/injection, schedule: Q01DX009 (ip), vehicle: saline sonified) was 100 % of control.

For `CC(=O)Nc1cc(NC(C)=O)cc(N(CCCl)CCCl)c1`, the T/C (dose: 6.25 mg/kg/injection, schedule: Q01DX009 (ip), vehicle: water) was 119 % of control and the T/C (dose: 12.5 mg/kg/injection, schedule: Q01DX009 (ip), vehicle: water) was 115 % of control.

For `COc1ccc(C(C#N)CC(=O)c2ccc3c(c2)OCO3)cc1OC` (stereo not given), the T/C [10] was 103 % of control, the T/C [11] was 100 % of control and the T/C [12] was 100 % of control.

With `C=C(Br)CN(CC)CC` the T/C [13] was 100 % of control, the T/C [14] was 92 % of control and the T/C [15] was 103 % of control.

In the case of `CNC=O`, the T/C [10] is reported as 99 % of control and the T/C [11] is reported as 110 % of control.

For `CC[C@@]1(O)C[C@H](OC2CC(N(C)C)C(OC3CC(O)C(OC4CCC(=O)C(C)O4)C(C)O3)C(C)O2)c2c(cc3c(c2O)C(=O)c2c(O)cccc2C3=O)[C@H]1C(=O)OC` (stereo not given in full), the T/C (dose: 0.75 mg/kg/injection, schedule: Q01DX001 (ip), vehicle: water) was 100 % of control and 106 % of control and 112 % of control, the T/C (dose: 0.75 mg/kg/injection, schedule: Q01DX009 (ip), vehicle: Klucel (hydroxypropylcellulose) (HPC)) was 123 % of control and the T/C (dose: 1.5 mg/kg/injection, schedule: Q01DX001 (ip), vehicle: water) was 105 % of control and 112 % of control and 120 % of control. The T/C (dose: 1.56 mg/kg/injection, schedule: Q01DX001 (ip), vehicle: water) was 103 % of control, the T/C (dose: 2.16 mg/kg/injection, schedule: Q01DX001 (ip), vehicle: water) was 95 % of control and 97 % of control and the T/C (dose: 3.0 mg/kg/injection, schedule: Q01DX001 (ip), vehicle: water) was 110 % of control and 124 % of control. For the same compound, the T/C (dose: 3.0 mg/kg/injection, schedule: Q01DX009 (ip), vehicle: saline) was 160 % of control, the T/C (dose: 3.13 mg/kg/injection, schedule: Q01DX001 (ip), vehicle: water) was 110 % of control and the T/C (dose: 3.6 mg/kg/injection, schedule: Q01DX001 (ip), vehicle: water) was 91 % of control and 101 % of control. The T/C (dose: 6.25 mg/kg/injection, schedule: Q01DX001 (ip), vehicle: water) was 124 % of control, the T/C (dose: 8.0 mg/kg/injection, schedule: Q01DX001 (ip), vehicle: water) was 106 % of control and 120 % of control and the T/C (dose: 10.0 mg/kg/injection, schedule: Q01DX001 (ip), vehicle: water) was 100 % of control. The T/C (dose: 12.0 mg/kg/injection, schedule: Q01DX001 (ip), vehicle: water) was 110 % of control and 124 % of control, the T/C (dose: 12.5 mg/kg/injection, schedule: Q01DX001 (ip), vehicle: water) was 114 % of control and 121 % of control and the T/C (dose: 25.0 mg/kg/injection, schedule: Q01DX001 (ip), vehicle: water) was 98 % of control.

`Cc1ccccc1Oc1ccccc1N` was tested, and the T/C (dose: 50.0 mg/kg/injection, schedule: Q01DX009 (sc), vehicle: olive oil, sesame oil, peanut oil) was 88 % of control, the T/C (dose: 100.0 mg/kg/injection, schedule: Q01DX009 (sc), vehicle: olive oil, sesame oil, peanut oil) was 90 % of control and the T/C (dose: 200.0 mg/kg/injection, schedule: Q01DX009 (sc), vehicle: olive oil, sesame oil, peanut oil) was 97 % of control. For the same compound, the T/C (dose: 400.0 mg/kg/injection, schedule: Q01DX009 (sc), vehicle: olive oil, sesame oil, peanut oil) was 90 % of control.

With `CCCC(=O)OCc1cc(=O)n(C)c2c3c4c(cc12)c(C)cc(=O)n4CO3` the T/C (dose: 3.12 mg/kg/injection, schedule: Q01DX009 (ip), vehicle: Klucel (hydroxypropylcellulose) (HPC)) was 106 % of control, the T/C [13] was 101 % of control and 110 % of control and the T/C [14] was 120 % of control. The T/C [4] was 153 % of control.

For `CC1(CCl)OCCO1`, the T/C [4] was 96 % of control, the T/C [5] was 100 % of control and the T/C [6] was 100 % of control.

For `CNCC(O)c1cccc(O)c1` (stereo not given), the T/C (dose: 1.56 mg/kg/injection, schedule: Q01DX009 (ip), vehicle: saline) was 111 % of control, the T/C (dose: 3.12 mg/kg/injection, schedule: Q01DX009 (ip), vehicle: saline) was 117 % of control and the T/C [2] was 108 % of control. The T/C [3] was 105 % of control and the T/C [16] was 95 % of control.

With `COc1ccc2c(ccc3oc([N+](=O)[O-])cc32)c1` the T/C [14] was 115 % of control, the T/C [15] was 118 % of control and the T/C [4] was 123 % of control.

In the case of `CCCCCCCCCCN1CCC(N2CCCCC2)CC1`, the T/C [2] is reported as 91 % of control, the T/C [3] is reported as 93 % of control and the T/C [16] is reported as 98 % of control. The T/C [10] was 87 % of control.

With `Cc1cc(=O)n2c3c(c4c(cc13)c(CN(C)C)cc(=O)n4C)OC2` the T/C [8] was 103 % of control, the T/C (dose: 12.5 mg/kg/injection, schedule: Q01DX009 (ip), vehicle: saline with Tween-80) was 101 % of control and the T/C (dose: 25.0 mg/kg/injection, schedule: Q01DX009 (ip), vehicle: saline with Tween-80) was 113 % of control. The T/C [9] was 117 % of control.

For `O=CNNC=O`, the T/C [17] was 86 % of control, the T/C [18] was 95 % of control and the T/C [19] was 90 % of control.

For `CCCCN(CCCC)CCCC#N`, the T/C [11] was 92 % of control.

`Cn1c[n+](C)cc1C(=O)[O-]` was tested, and the T/C [10] was 115 % of control, the T/C [11] was 115 % of control and the T/C [12] was 109 % of control.

In the case of `C=CCc1c(C)ccc(C)c1OC`, the T/C (dose: 25.0 mg/kg/injection, schedule: Q04DX003 (ip), vehicle: Klucel (hydroxypropylcellulose) (HPC)) is reported as 102 % of control, the T/C (dose: 50.0 mg/kg/injection, schedule: Q04DX003 (ip), vehicle: Klucel (hydroxypropylcellulose) (HPC)) is reported as 101 % of control and the T/C [20] is reported as 93 % of control.

With `O=C(NC(CO)C(=O)OCc1ccccc1)OCc1ccccc1` (stereo not given) the T/C [17] was 111 % of control, the T/C [18] was 113 % of control and the T/C [19] was 105 % of control.

In the case of `Cc1c2cccc(F)c2c[n+]2ccccc12`, the T/C [13] is reported as 100 % of control, the T/C [14] is reported as 100 % of control and the T/C [15] is reported as 106 % of control.

`COc1ccc(NC2=CC(C)(C(=O)O)OC2=O)cc1` (stereo not given) was tested, and the T/C (dose: 12.5 mg/kg/injection, schedule: Q04DX003 (ip), vehicle: saline with Tween-80) was 93 % of control, the T/C (dose: 25.0 mg/kg/injection, schedule: Q04DX003 (ip), vehicle: saline with Tween-80) was 102 % of control and the T/C (dose: 50.0 mg/kg/injection, schedule: Q04DX003 (ip), vehicle: saline with Tween-80) was 100 % of control.

For `CC(=O)[C@H]1CC[C@H]2[C@@H]3C[C@H](C)C4=CC(=O)CC[C@]4(C)[C@H]3C(=O)C[C@]12C`, the T/C [5] was 107 % of control, the T/C [6] was 92 % of control and the T/C [7] was 94 % of control.

In the case of `C1CCN(CCC2CCCCN2)CC1` (stereo not given), the T/C [3] is reported as 106 % of control and the T/C [16] is reported as 100 % of control.

With `O=C(O)/C=C/C(=O)Nc1ccccc1` the T/C [20] was 106 % of control, the T/C (dose: 200.0 mg/kg/injection, schedule: Q04DX003 (ip), vehicle: Klucel (hydroxypropylcellulose) (HPC)) was 96 % of control and the T/C (dose: 400.0 mg/kg/injection, schedule: Q04DX003 (ip), vehicle: Klucel (hydroxypropylcellulose) (HPC)) was 103 % of control.
